Measurements: patent US4298734A, “Diazaheterocyclopurines and triazolopyrimidines” (Mead Johnson & Company, priority 1979, dated 1981)

Experiments:
[1] = test system: passive cutaneous anaphylaxis reaction (PCA) in the rat; experiment: Passive cutaneous anaphylaxis reaction (PCA) in the rat; type: in vivo; set-up: key to PCA, inactive at dose: I: inactive at the specified dose; details: for ED50 / PCA, ED50: oral; for inhibition in vivo at 50 mg/kg: oral dose 50 mg./kg.
Method: Antiallergy activity in terms of ability to inhibit the immediate hypersensitivity reaction was measured by means of the passive cutaneous anaphylaxis reaction (PCA) in the rat (Table XI, column 7). The animals were passively sensitized by the intradermal injection of rat reagenic antiserum at various locations on the shaved back skin and 48 hours later the test drug was administered. This was followed by challenge at a predetermined interval, usually 15 minutes, by intravenous injection of egg albumin and Evans' blue dye. The dermal reaction at the sensitized site was evaluated and scored by measuring the diameter of the spot generated at the sensitized intradermal injection site. The values reported in the table are either ED50 values for the test compound in terms of mg./kg. of body weight administered orally, or percent inhibition of the dose specified in parentheses.

[2] = test system: methacholine-induced bronchospasm in the rat; experiment: Methacholine-induced bronchospasm (pulmonary ventilation pressure) in anesthetized rat; type: in vivo; details: intraduodenal; for ED50 / Methacholine Bronchospasm, ED50: 50% inhibition of bronchospasm; for Methacholine Bronchospasm, percent inhibition: dose 30 mg./kg.; for inhibition in vivo at 10 mg/kg: read-out: Methacholine Bronchospasm, percent inhibition; for inhibition in vivo at 10 mg/kg / Methacholine Bronchospasm, inactive at dose: dose 10 mg./kg.
Description: Brochodilator activity in vivo (Table XI, column 6) was estimated by determining the dose of test compound required to inhibit methacholine-induced brochospasm in the rat. […] For this test, pulmonary ventilation pressure (PVP) was the parameter measured using anesthetized animals.

[3] = Anti-allergy and bronchodilator action compared with aminophylline
[4] = test system: rats actively sensitized with egg albumin and B. pertussis vaccine; experiment: Allergic bronchospasm in rats actively sensitized with egg albumin; type: in vivo; details: rat, oral, egg albumin challenge, PVP; for ED50: Bordetella pertussis
Method: Antiallergy/bronchodilator studies (Table XI, column 8) were also conducted using rats which were actively sensitized with egg albumin and B. pertussis vaccine as for preparation of the reagenic antisera in the PCA test. Fifteen days following sensitization, the animals were prepared for measurement of PVP as for the methacholine-induced bronchospasm test, and changes in PVP in response to a standardized challenge of egg albumin following treatment with test drug were measured. The values reported in the table are ED50 values in terms of mg./kg. of body weight for the test compound administered orally.

[5] = Anticholinergic action mediating bronchodilator activity
[6] = Maximum non-toxic dose in mice; details: mouse, in vivo, po; per os in mice
Description: Compounds of Formula I and Formula II are useful as bronchodilators, antiallergy agents in the inhibition of the immediate hypersensitivity reaction, as vasodilators, and as inhibitors of the enzyme phosphodiesterase. The invention includes processes for the treatment of mammals requiring bronchodilation, vasodilation, or having allergy with a non-toxic bronchodilator effective, vasodilator effective, or immediate hypersensitivity reaction inhibiting dose of one of these compounds. The compounds may be administered orally, parenterally, topically by inhalation, or rectally. Effective doses range from about 0.03 mg./kg. of body weight up to the maximum non-toxic dose which can be administered without undue side effects. Maximum non-toxic doses can be determined by standard pharmacologic techniques using mice. The value for the substance of Procedure 3 or 4, a preferred compound for anti-asthma use, is about 250 mg./kg. of body weight per os in mice.

[7] = read-out: PCA, percent inhibition
[8] = oral dose 25 mg./kg., read-out: PCA, percent inhibition
[9] = oral dose 10 mg./kg., read-out: PCA, percent inhibition

CC(C)c1nc2c([nH]1)C(=O)N1CCN=C1N2Cc1ccccc1Cl [Procedure 16]
PCA, inactive at dose ([1]; oral dose 25 mg./kg.): I

CC1(C)CN2C(=O)c3nc[nH]c3N(Cc3ccc(Cl)cc3)C2=N1 [Procedure 104]
ED50 [1]: 42.8 mg/kg
ED50 [2]: 6.3 mg/kg
anti-allergy and bronchodilator action relative to aminophylline [3]: more potent than aminophylline in anti-allergy and bronchodilator action
ED50 [4]: 3 mg/kg

O=C1c2[nH]cnc2N(Cc2ccccc2Cl)C2=NCCN12 [Procedure 6]
inhibition in vivo at 50 mg/kg [1, 7]: 25%

O=C1c2[nH]c(Br)nc2N(Cc2ccc(Cl)cc2)C2=NCCN12 [Procedure 17]
inhibition in vivo at 25 mg/kg [1, 8]: 34%

S=C1c2[nH]cnc2N(Cc2ccc(Cl)cc2)C2=NCCN12 [Procedure 75]
PCA, inactive at dose ([1]; oral dose 25 mg./kg.): I
Methacholine Bronchospasm, percent inhibition [2]: 21%

CC(C)CN1C2=NCCN2C(=O)c2c1ncn2CCOc1ccccc1 [Procedure 39]
PCA, inactive at dose ([1]; oral dose 25 mg./kg.): I
inhibition in vivo at 10 mg/kg [2]: 34.7%

Cn1c(Br)nc2c1C(=O)N1CCN=C1N2Cc1ccc(Cl)cc1 [Procedure 46]
ED50 [2]: > 30 mg/kg

CCCCn1cnc2c1C(=O)N1CCN=C1N2Cc1ccc(Cl)cc1 [Procedure 24]
PCA, inactive at dose ([1]; oral dose 10 mg./kg.): I
inhibition in vivo at 10 mg/kg [2]: 16%

CC(C)CN1C2=NC(C)CN2C(=O)c2[nH]cnc21 (stereo not shown) [Procedure 109]
ED50 [2]: 4.6 mg/kg

O=C1c2[nH]nnc2N(Cc2ccc(Cl)c(Cl)c2)C2=NCCN12 [Procedure 28]
PCA, inactive at dose ([1]; oral dose 10 mg./kg.): I

CCCCCCCCN1C2=NCCN2C(=O)c2[nH]cnc21 [Procedure 54]
PCA, inactive at dose ([1]; oral dose 25 mg./kg.): I

CC1CN2C(=O)c3[nH]cnc3N(Cc3ccc(Cl)cc3)C2=N1 (racemic) [Procedure 100]
PCA, ED50 [1]: 10.6 mg/kg
Methacholine Bronchospasm, ED50 [2]: 2.1 mg/kg
Allergic Bronchospasm, ED50 [4]: 1.5 mg/kg

O=C1c2[nH]cnc2N(Cc2ccccn2)C2=NCCN12 [Procedure 10]
inhibition in vivo at 25 mg/kg [1, 8]: 40%

N=C1c2[nH]cnc2N(Cc2ccc(Cl)cc2)C2=NCCN12 [Procedure 77]
Methacholine Bronchospasm, percent inhibition [2]: 22%

CC1N=C2N(Cc3ccc(Cl)cc3)c3nc[nH]c3C(=O)N2C1C (stereo not drawn) [106(cis)]
PCA, ED50 [1]: 28.5 mg/kg
Methacholine Bronchospasm, ED50 [2]: 3.0 mg/kg

O=C1c2[nH]cnc2N(CCOc2ccc(Cl)cc2)C2=NCCN12 [Procedure 57]
inhibition in vivo at 25 mg/kg [1, 8]: 31.7%
inhibition in vivo at 10 mg/kg [2]: 66%

O=c1c2[nH]cnc2n(Cc2ccc(Cl)cc2)c2nccn12 [Procedure 124]
Methacholine Bronchospasm, ED50 [2]: 8.1 mg/kg

COc1ccc(CCN2C3=NCCN3C(=O)c3[nH]nnc32)cc1OC [Procedure 26]
inhibition in vivo at 10 mg/kg [1, 9]: 41%

CC(C)CN1C2=NCCN2C(=O)c2[nH]cnc21 [Procedure 13]
PCA, inactive at dose ([1]; oral dose 25 mg./kg.): I
inhibition in vivo at 10 mg/kg [2]: 63%

Cc1nc2c(n1C)C(=O)N1CCN=C1N2Cc1ccc(Cl)cc1 [Procedure 117]
ED50 [2]: 5.7 mg/kg

CC1N=C2N(Cc3ccc(Cl)cc3)c3nc[nH]c3C(=O)N2C1C (stereo not drawn) [106(trans)]
PCA, ED50 [1]: 35.5 mg/kg
Methacholine Bronchospasm, ED50 [2]: 5.0 mg/kg

Cc1nc2c([nH]1)C(=O)N1CCN=C1N2Cc1ccc(Cl)cc1 [Procedure 15]
inhibition in vivo at 30 mg/kg ([1]; oral dose 30 mg./kg., read-out: PCA, percent inhibition): 40%
ED50 [2]: 1.79 mg/kg

O=C1c2[nH]cnc2N(Cc2ccc(Cl)c(Cl)c2)C2=NCCN12 [Procedure 7]
PCA, inactive at dose ([1]; oral dose 25 mg./kg.): I

O=C1c2[nH]cnc2N(CCc2ccc(Cl)cc2)C2=NCCN12 [Procedure 60]
PCA, inactive at dose ([1]; oral dose 25 mg./kg.): I
Methacholine Bronchospasm, inactive at dose [2]: I

COc1ccc(CCN2C3=NCCN3C(=O)c3[nH]cnc32)cc1OC [Procedure 11]
inhibition in vivo at 10 mg/kg [1, 9]: 25%

Cn1cnc2c1C(=O)N1CCN=C1N2Cc1ccc(Cl)cc1 [Procedure 67]
PCA, percent inhibition ([1]; oral dose 25 mg./kg.): 26%
Methacholine Bronchospasm, ED50 [2]: 8.8 mg/kg

O=C1c2[nH]cnc2N(Cc2ccc(F)cc2)C2=NCCN12 [Procedure 8]
inhibition in vivo at 10 mg/kg [1, 9]: 29%
inhibition in vivo at 10 mg/kg [2]: 55.5%

CC1N=C2N(Cc3ccc(Cl)cc3)c3nc[nH]c3C(=O)N2C1C (mixture of isomers) [106(mixed)]
PCA, ED50 [1]: 20.3 mg/kg
Methacholine Bronchospasm, ED50 [2]: 3.7 mg/kg
Allergic Bronchospasm, ED50 [4]: 3.51 mg/kg

Cc1nc2c([nH]1)C(=O)N1CCN=C1N2CCOc1ccccc1 [Procedure 58]
inhibition in vivo at 25 mg/kg [1, 8]: 29%
anticholinergic action [5]: anticholinergic action of a type which mediates improved bronchodilator activity
ED50 [2]: 0.81 mg/kg

Cn1c(=O)c2[nH]cnc2n(C)c1=O [Theophylline, reference compound]
ED50 [1]: 41.5 mg/kg
ED50 [2]: 19.2 mg/kg

Cc1nc2c([nH]1)C(=O)N1CCN=C1N2CC(C)C [Procedure 63]
ED50 [1]: 33.9 mg/kg
ED50 [2]: 3.3 mg/kg
ED50 [4]: 5.4 mg/kg

O=C1c2[nH]cnc2N(CC2CCCCC2)C2=NCCN12 [Procedure 59]
inhibition in vivo at 25 mg/kg [1, 8]: 29%
inhibition in vivo at 10 mg/kg [2]: 45.8%

O=C1c2[nH]nnc2N(Cc2ccc(F)cc2)C2=NCCN12 [Procedure 27]
ED50 [1]: 17.7 mg/kg
inhibition in vivo at 10 mg/kg [2]: 30%

O=C1c2[nH]cnc2N(CCOc2ccccc2)C2=NCCN12 [Procedure 12]
inhibition in vivo at 25 mg/kg [1, 8]: 27%
anticholinergic action [5]: anticholinergic action of a type which mediates improved bronchodilator activity
ED50 [2]: 2.3 mg/kg

CCc1nc2c([nH]1)C(=O)N1CCN=C1N2Cc1ccc(Cl)cc1 [Procedure 14]
inhibition in vivo at 50 mg/kg [1, 7]: 29%
inhibition in vivo at 10 mg/kg [2]: 26%

CC1CN2C(=O)c3c(ncn3C)N(Cc3ccc(Cl)cc3)C2=N1 (racemic) [Procedure 102]
PCA, ED50 [1]: 28.9 mg/kg
Methacholine Bronchospasm, ED50 [2]: 1.1 mg/kg
Allergic Bronchospasm, ED50 [4]: 3.4 mg/kg

CCCCCCCCN1C2=NCCN2C(=O)c2[nH]c(C(C)C)nc21 [Procedure 56]
inhibition in vivo at 25 mg/kg [1, 8]: 25%

O=C1c2[nH]cnc2N(CCCc2ccccc2)C2=NCCN12 [Procedure 62]
PCA, inactive at dose ([1]; oral dose 25 mg./kg.): I
inhibition in vivo at 10 mg/kg [2]: 22%

CCCCCCCCN1C2=NCCN2C(=O)c2[nH]c(C)nc21 [Procedure 55]
inhibition in vivo at 25 mg/kg [1, 8]: 34.9%

O=C1c2[nH]cnc2N(Cc2ccc(Cl)cc2)C2=NCCN12 [Procedure 3]
ED50 [1]: 33.7 mg/kg
MTD [6]: ~250 mg/kg
ED50 [2]: 5.2 mg/kg
ED50 [4]: 2.9 mg/kg

Cc1nc2c([nH]1)C(=O)N1CC(C)N=C1N2Cc1ccc(Cl)cc1 (racemic) [Procedure 101]
PCA, ED50 [1]: 30.2 mg/kg
Methacholine Bronchospasm, ED50 [2]: 1.00 mg/kg
Allergic Bronchospasm, ED50 [4]: 1.2 mg/kg

O=C1c2[nH]cnc2N(Cc2ccccc2)C2=NCCN12 [Procedure 23]
PCA, inactive at dose ([1]; oral dose 25 mg./kg.): I

O=C1c2c(ncn2Cc2ccc(F)cc2)N(Cc2ccc(F)cc2)C2=NCCN12 [Procedure 44]
PCA, inactive at dose ([1]; oral dose 10 mg./kg.): I
inhibition in vivo at 10 mg/kg [2]: 0%

COc1ccccc1CN1C2=NCCN2C(=O)c2[nH]cnc21 [Procedure 9]
PCA, inactive at dose ([1]; oral dose 10 mg./kg.): I

O=C1c2[nH]nnc2N(CCOc2ccccc2)C2=NCCN12 [Procedure 74]
PCA, inactive at dose ([1]; oral dose 25 mg./kg.): I
Methacholine Bronchospasm, inactive at dose [2]: I

O=C1c2[nH]nnc2N(Cc2ccc(Cl)cc2)C2=NCCN12 [Procedure 25]
PCA, inactive at dose ([1]; oral dose 10 mg./kg.): I

CC(C)C(=O)N1C2=NCCN2C(=O)c2[nH]c(C(C)C)nc21 [Procedure 20]
inhibition in vivo at 25 mg/kg [1, 8]: 46%

O=C1c2[nH]cnc2N(Cc2cccc(Cl)c2)C2=NCCN12 [Procedure 5]
inhibition in vivo at 50 mg/kg [1, 7]: 43%
inhibition in vivo at 10 mg/kg [2]: 64%

CC(C)c1nc2c([nH]1)C(=O)N1CCN=C1N2CCOc1ccccc1 [Procedure 108]
ED50 [2]: 4 mg/kg
